Test results published in patent US20200178526A1, “Emulsifiable Concentrates” (priority 2016, published 2020).
Read-outs that look alike come from different tables or passages of the source.

What was measured:
[1] = Solubility screening of bifenthrin in various solvents; format: physicochemical
Method: Four-milliliter (mL) vials are charged with bifenthrin (10 to 50 wt %), a stir bar, and solvent (90 to 50 wt %). The vials are capped and taped to seal. The vials are secured in a vial rack and shaken on a laboratory shaker for 12 hours at ambient lab temperature (21° C.) and humidity (51%). After 12 hours each sample set is evaluated for solubility of solid:
Yes—Homogeneous clear solution
No—Solids present in the sample

[2] = obtained from Hansen's book, pages 399 and 418; cited from earlier work
[3] = bifenthrin 10 wt % in solvent, shaken 12 hours at 21° C., humidity 51%
[4] = bifenthrin 20 wt % in solvent, shaken 12 hours at 21° C., humidity 51%
[5] = bifenthrin 30 wt % in solvent, shaken 12 hours at 21° C., humidity 51%
[6] = bifenthrin 40 wt % in solvent, shaken 12 hours at 21° C., humidity 51%
[7] = bifenthrin 50 wt % in solvent, shaken 12 hours at 21° C., humidity 51%

Row | Compound | Solubility of Bifenthrin, 10 wt % [1] | Solubility of Bifenthrin, 20 wt % [1] | Solubility of Bifenthrin, 30 wt % [1] | Solubility of Bifenthrin, 40 wt % [1] | Solubility of Bifenthrin, 50 wt % [1] | Hansen Parameter δH (hydrogen bonding) [2] | Hansen Parameter δP (polar) [2] | Solubility of Bifenthrin, 10 wt % [1, 3] | Solubility of Bifenthrin, 20 wt % [1, 4] | Solubility of Bifenthrin, 30 wt % [1, 5] | Solubility of Bifenthrin, 40 wt % [1, 6] | Solubility of Bifenthrin, 50 wt % [1, 7]
1 | CCCCOCCOCCOC(C)=O [BUTYL CARBITOL ™ ACETATE, diethylene glycol n-butyl ether acetate] | YES | YES | YES | NO | NO | 8.2 (J/cc)^1/2 | 4.1 (J/cc)^1/2 |  |  |  |  | 
2 | CCCCOCCOC(C)=O [BUTYL CELLOSOLVE ™ ACETATE, ethylene glycol n-butyl ether acetate] |  |  |  |  |  | 8.8 (J/cc)^1/2 | 4.5 (J/cc)^1/2 | YES | YES | YES | YES | NO
3 | CCOCCOCCO [CARBITOL ™, diethylene glycol monoethyl ether] | YES | YES | NO | NO | NO |  |  |  |  |  |  | 
4 | CCCCCCCCCCCC(=O)OCC [DIAMOSOLV ™ 323, ethyl laurate] | YES | YES | NO | NO | NO |  |  |  |  |  |  | 
5 | CC(CO)OCC(C)Oc1ccccc1 (centres unmarked) [DOWANOL ™ DiPPH, dipropylene glycol phenyl ether] | YES | NO | NO | NO | NO |  |  |  |  |  |  | 
6 | OCCOc1ccccc1 [DOWANOL ™ EPH, ethylene glycol phenyl ether] |  |  |  |  |  |  |  | NO | NO | NO | NO | NO
7 | CC(=O)OCC(C)OC(C)=O (centres unmarked) [DOWANOL ™ PGDA, propylene glycol diacetate] | YES | YES | YES | NO | NO |  |  |  |  |  |  | 
8 | CC(O)COc1ccccc1 (centres unmarked) [DOWANOL ™ PPH, propylene glycol phenyl ether] | YES | NO | NO | NO | NO |  |  |  |  |  |  | 
9 | CCCCOC(C)COC(C)COC(C)CO (centres unmarked) [DOWANOL ™ TPNB, tripropylene glycol n-butyl ether] | YES | YES | NO | NO | NO |  |  |  |  |  |  | 
10 | CCCCOCCOC(=O)c1ccccc1 [XU40782.00, ethylene glycol n-butyl ether benzoate] | YES | YES | YES | NO | NO |  |  |  |  |  |  | 
11 | polyethylene glycol monophenyl ether [DOWANOL ™ EPH6] |  |  |  |  |  |  |  | NO | NO | NO | NO | NO
